Experimental data reported in patent publication US20230172933A1, “USE OF A COMPOUND OR COMPOSITION COMPRISING AN INHIBITOR OF NLRP1 INFLAMMASOME ACTIVATION FOR THE TREATMENT OF HUMAN AIRWAY INFLAMMATION” (Nanyang Technological University, priority 2020, published 2023).
“Also recorded” adds a separate entry of the source.

Key:
[1] = test system: human NLRP1; assay: ASC-GFP speck formation in 293T-ASC-GFP-NLRP1-FLAG cells after Talabostat treatment; format: cell-based; conditions: Talabostat 2 μM, 24 hrs, compared to vector-transfected cells
[2] = test system: NHBEs; assay: Cytokine response of Talabostat-treated NHBEs (Luminex array, ELISA); format: cell-based, human
Procedure: (A) Expression levels of NLRP1 vs. NLRP3 (RNAseq FKPM) in NHBEs. n=21, independent cultures of pooled NHBEs from healthy donors. (B) Expression of NLRP1 vs. NLRP3 in healthy human nasal biopsy. Puncta: positive staining by RNAscope. Nuclei staining: hematoxylin. (C) Overview of cytokine profiling of by HRV16-infected and Talabostat-treated NHBEs. (D) Cells were inoculated with HRV16 at MOI=5 and cultured at 33° C. for 48 hours. Luminex array was performed on conditioned media after removing cell debris. n=3 independent infections and treatment. Cytokines/chemokines that were induced at least 5 fold (p<0.05, Student's t test, lognormal values) are represented by square boxes. […] NHBEs were pretreated with MCC950 (5 μM) or Rupintrivir (10 nM) before HRV16 inoculation or Talabostat (2 μM) treatment. […]
(§1) The following antibodies were used in this study: c-Myc (Santa Cruz Biotechnology #sc-40), HA tag (Santa Cruz Biotechnology, #sc-805), GAPDH (Santa Cruz Biotechnology, #sc-47724), ASC (Adipogen, #AL-177), CASP1 (Santa Cruz Biotechnology, #sc-622), IL1B (R&D systems, #AF-201), FLAG (SigmaAldrich, #F3165), GFP (Abcam, #ab290), NLRP1 (R&D systems, #AF6788), IL18 (Abcam ab207324) and VP2 (QED Bioscience, #18758). HRV16-3Cpro was detected by rabbit serum, a kind gift from Dr. Ann Palmenberg and Dr. James Gern (University of Wisconsin). […]

[3] = test system: N/TERT cells; assay: Mode of cell death of N/TERT cells by Annexin V and PI inclusion; format: cell-based, human; conditions: Talabostat-treated N/TERT cells; marked by PI inclusion
Procedure: (A) Expression of Myc-tagged viral proteases in 293T-ASC-GFP-NLRP1-FLAG cells. Two exposure times were shown. Note that Myc-HRV16-3Cpro was lowly expressed but could activate ASC-GFP specks. (B) Representative wide-field fluorescent images of ASC-GFP specks, NLRP1-HA and Myc-tagged proteases. 293T-ASC-GFP cells were co-transfected with NLRP1-HA and Myc-tagged gZiPro, HRV14-3Cpro or HRV14-3Cpro^C146A and fixed 24 hours post transfection. (C) Validation of ASC KO in N/TERT cells. ASC KO #2 was chosen for further experiments. (E) N/TERT KO cells were transfected with the indicated 3Cpro variants and harvested 24 hours post transfection. Conditioned media was analyzed by IL-1β ELISA. **P<0.01 (Two-way ANOVA). n=3 independent transfections. (F) Modes of cell death of Talabostat-treated, or doxycycline-induced Tet-ON HRV14-3Cpro N/TERT cells assayed […] and PI inclusion. Data are representative of one of two independent experiments.
This provides a robust cellular system to determine if 3Cpros can activate the endogenous NLRP1 inflammasome. […] Live-cell imaging of human keratinocytes expressing GFP-tagged ASC further corroborated that HRV14-3Cpro could induce ASC-GFP speck formation (FIG. 1F). […]

[4] = test system: 3D human bronchial epithelial cultures; assay: Talabostat treatment of 3D human bronchial epithelial cultures; format: cell-based; conditions: Talabostat 2 μM
Procedure: (A) Expression levels of NLRP1 vs. NLRP3 (RNAseq FKPM) in NHBEs. n=21, independent cultures of pooled NHBEs from healthy donors. (B) Expression of NLRP1 vs. NLRP3 in healthy human nasal biopsy. Puncta: positive staining by RNAscope. Nuclei staining: hematoxylin. (C) Overview of cytokine profiling of by HRV16-infected and Talabostat-treated NHBEs. (D) Cells were inoculated with HRV16 at MOI=5 and cultured at 33° C. for 48 hours. Luminex array was performed on conditioned media after removing cell debris. n=3 independent infections and treatment. Cytokines/chemokines that were induced at least 5 fold (p<0.05, Student's t test, lognormal values) are represented by square boxes. […] NHBEs were pretreated with MCC950 (5 μM) or Rupintrivir (10 nM) before HRV16 inoculation or Talabostat (2 μM) treatment. […] (G) Overview of apical HRV infection 3D human bronchial epithelial cultures. (H) Alcian blue (AB)/periodic acid-Schiff (PAS) staining of HRV16-infected (MOI=3) and Talabostat (2 μM)-treated 3D human bronchial epithelial cultures. (1) IL-18 level in apical or basal media 48 hours post-infection or Talabostat treatment. **P<0.01, ***P<0.001, ****P<0.0001 (Two-way ANOVA). n=3 independent infected/treated cultures. (J) Secretion of cleaved IL-1β and IL-18 and ASC oligomerization in HRV16-infected primary NHBEs. […]

[5] = test system: endogenous NLRP1 inflammasome; assay: Endogenous NLRP1 inflammasome in doxycycline-induced Tet-ON HRV14-3Cpro N/TERT keratinocytes; format: cell-based, human
[6] = test system: NLRP1 inflammasome in HRV16-infected NHBEs; assay: HRV16-induced IL-1β and IL-18 secretion in NHBEs (ELISA); format: cell-based, human; conditions: HRV16 MOI=5, 33° C., 48 hours, pre-treated: MLN4924 1 μM, Bortezomib 1 μM, MCC950 5 μM, Rupintrivir 10 nM
Procedure: (§2) (A) Expression levels of NLRP1 vs. NLRP3 (RNAseq FKPM) in NHBEs. n=21, independent cultures of pooled NHBEs from healthy donors. (B) Expression of NLRP1 vs. NLRP3 in healthy human nasal biopsy. Puncta: positive staining by RNAscope. Nuclei staining: hematoxylin. (C) Overview of cytokine profiling of by HRV16-infected and Talabostat-treated NHBEs. (D) Cells were inoculated with HRV16 at MOI=5 and cultured at 33° C. for 48 hours. Luminex array was performed on conditioned media after removing cell debris. n=3 independent infections and treatment. Cytokines/chemokines that were induced at least 5 fold (p<0.05, Student's t test, lognormal values) are represented by square boxes. […] NHBEs were pretreated with MCC950 (5 μM) or Rupintrivir (10 nM) before HRV16 inoculation or Talabostat (2 μM) treatment. […] (G) Overview of apical HRV infection 3D human bronchial epithelial cultures. (H) Alcian blue (AB)/periodic acid-Schiff (PAS) staining of HRV16-infected (MOI=3) and Talabostat (2 μM)-treated 3D human bronchial epithelial cultures. (1) IL-18 level in apical or basal media 48 hours post-infection or Talabostat treatment. **P<0.01, ***P<0.001, ****P<0.0001 (Two-way ANOVA). n=3 independent infected/treated cultures. (J) Secretion of cleaved IL-1β and IL-18 and ASC oligomerization in HRV16-infected primary NHBEs. Cells were inoculated with HRV16 (MOI=5) or treated with Talabostat (2 μM) for 48 hours at 33° C.
(§3) (A) Endogenous NLRP1, ASC and caspase-1 are indispensable for HRV16-induced IL-18 secretion in NHBEs. Cas9-control, NLRP1, ASC and CASP1 KO NHBEs were infected with HRV16 as before. Conditioned media were harvested 48 hours post-infection. (B) NLRP1 is genetically required for HRV16-induced IL-18 cleavage and ASC oligomerization. Cas9 control, NLRP1 and ASC KO NHBEs were infected with HRV16 as before. Cleaved IL-18 are marked with arrows. (C) Mutating the NLRP1 cleavage site abrogates HRV16-triggered IL-18 secretion in NHBEs. NLRP1 KO NHBEs were rescued with lentiviral constructs expressing FLAG-tagged NLRP1^WT or NLRP1^Q130A, which carried silent mutations at the PAM sites. The rescued cells were infected with HRV16 or treated with Talabostat. Conditioned media was analyzed by IL-18 ELISA. **P<0.01, ***P<0.001, n=3 replicates from one of two independent infections. (D) Q130A abrogates NLRP1 cleavage, IL-18 maturation and ASC oligomerization in NHBEs. NLRP1 KO or NLRP1^WT- or NLRP1^Q130A-rescued cells were infected with HRV16 or treated with Talabostat. Cells were harvested 48 hours post infection. Arrow: NLRP1 cleavage product in lane 8 HRV16. *: Non-specific NLRP1 degradation product that occurs right below the a.a. 131-1213 cleavage fragment. See also FIG. 3E, 5E, 5D. (E) MLN4924 and Bortezomib blocks HRV16-induced IL-18 secretion. NHBEs were pre-treated with MLN4924 (1 μM) or Bortezomib (1 μM) before HRV16 infection or Talabostat treatment. IL-18 levels were measured with ELISA. ****, p<0.0001 (Two-way ANOVA), n=3 independent infections/treatment. (F) MLN4924 and Bortezomib blocks HRV16-induced IL-1β secretion. […] Lysates from HRV16-infected NHBEs in FIGS. 9E-F were analyzed by Western blot 48 hours post HRV16 inoculation.
as §1, with “Wisconsin). Cytokine and chemokine measurements were carried out with human IL-1B ELISA kit (BD, #557953), human IL-18 ELISA kit (MBL Bioscience, #7620) and Immune Monitoring 65-Plex Human ProcartaPlex™ Panel (ThermoFisher EPX650-10065-901).” for “Wisconsin).”

[7] = test system: NLRP1 inflammasome in Talabostat-treated NHBEs; assay: Talabostat-induced IL-1β and IL-18 secretion in NHBEs (ELISA); format: cell-based, human; conditions: Talabostat 2 μM, pre-treated: MLN4924 1 μM, MCC950 5 μM, Rupintrivir 10 nM
Procedure: as §2
(A) Endogenous NLRP1, ASC and caspase-1 are indispensable for HRV16-induced IL-18 secretion in NHBEs. Cas9-control, NLRP1, ASC and CASP1 KO NHBEs were infected with HRV16 as before. Conditioned media were harvested 48 hours post-infection. (B) NLRP1 is genetically required for HRV16-induced IL-18 cleavage and ASC oligomerization. Cas9 control, NLRP1 and ASC KO NHBEs were infected with HRV16 as before. Cleaved IL-18 are marked with arrows. […] Conditioned media was analyzed by IL-18 ELISA. **P<0.01, ***P<0.001, n=3 replicates from one of two independent infections. […] IL-18 levels were measured with ELISA. ****, p<0.0001 (Two-way ANOVA), n=3 independent infections/treatment. […] Lysates from HRV16-infected NHBEs in FIGS. 9E-F were analyzed by Western blot 48 hours post HRV16 inoculation.
as §1

[8] = test system: NLRP1; assay: NLRP1 self-oligomerization (BN-PAGE) and cleavage fragment (SDS-PAGE/Western blot) in 293T-NLRP1-FLAG cells transfected with HRV14-3Cpro; format: cell-based, human
[9] = test system: human NLRP1 inflammasome; assay: HRV14-3Cpro-induced ASC-GFP speck formation in 293T-ASC-GFP-NLRP1-FLAG reporter cells; format: cell-based; conditions: 293T-ASC-GFP-NLRP1-FLAG cells transfected with HRV14-3Cpro; MLN4924 1 μM, MG132 2.5 μM, Bortezomib 0.5 μM, phenylalanine 1 mM; 24 hours
[10] = test system: HRV16; assay: VP2 maturation in HRV16-infected NHBEs (Western blot); format: cell-based, HRV-A16; conditions: 48 hours post inoculation, MLN4924 1 μM
Procedure: as §3, with “Arrow: NLRP1 cleavage product in lane 8 HRV16. *: Non-specific NLRP1 degradation product that occurs right below the a.a. 131-1213 cleavage fragment. See also FIG. 3E, 5E, 5D. (E) MLN4924 and Bortezomib blocks HRV16-induced IL-18 secretion. NHBEs were pre-treated with MLN4924 (1 μM) or Bortezomib (1 μM) before HRV16 infection or Talabostat treatment.” left out, “infections/treatment.” for “infections/treatment. (F) MLN4924 and Bortezomib blocks HRV16-induced IL-1β secretion.”, “inoculation. […]” for “inoculation.”

[11] = test system: NLRP1 inflammasome; assay: Talabostat-induced IL-1β secretion in N/TERT keratinocytes; format: cell-based, human; conditions: ELISA of conditioned media

Structure (SMILES)	percentage of cells forming ASC-GFP specks [1]	IL-1β secretion ([2]; ELISA)	IL-18 induction (cytokine profiling) ([2]; Luminex array on conditioned media)	mode of cell death [3]	epithelium morphology (Alcian blue/PAS staining) [4]	IL-18 level in apical or basal media ([4]; 48 hours)	ASC oligomerization upon HRV14-3Cpro induction ([5]; doxycycline 24 hours)	mature IL-1β secretion upon HRV14-3Cpro induction ([5]; doxycycline 24 hours, Western blot, ELISA)	endogenous 3Cpro-induced NLRP1 inflammasome and pyroptosis ([5]; doxycycline with drug for 24 hours)	stabilization of the post-cleavage NLRP1 fragment ([5]; fragment below detection limit in untreated cells)	HRV16-induced IL-1β secretion [6]	HRV16-induced IL-18 secretion [6]	Talabostat-induced IL-1β secretion [7]	Talabostat-induced IL-18 secretion [7]	stabilization of the post-cleavage NLRP1 fragment (a.a. 131-1213) ([8]; 293T-NLRP1-FLAG cells transfected with HRV14-3Cpro, Western blot)	HRV14-3Cpro-induced NLRP1 self-oligomerization ([8]; 293T-NLRP1-FLAG cells, BN-PAGE, drugs for 24 hours, MG132 2.5 μM)	HRV14-3Cpro-induced ASC-GFP speck formation [9]	accumulation of mature capsid protein VP2 (3Cpro-dependent VP2 maturation) [10]	Talabostat-induced IL-1β secretion [11]
CC(C)[C@H](N)C(=O)N1CCC[C@H]1B(O)O [Talabostat]	significant increase	significantly secreted	most highly induced cytokine	exclusively caused lytic cell death	significant disruption of the epithelium, increased mucin production and goblet cell engorgement	led to IL-18 secretion in both the apical and basal media													
NS(=O)(=O)OC[C@@H]1C[C@@H](n2ccc3c(N[C@H]4CCc5ccccc54)ncnc32)C[C@@H]1O [MLN4924, ((1S,2S,4R)-4-(4-(((S)-2,3-dihydro-1H-inden-1-yl)amino)-7H-pyrrolo[2,3-d]pyrimidin-7-yl)-2-hydroxycyclopentyl)methyl sulfamate]							completely blocked	completely blocked	inhibits	stabilized	completely blocked; also recorded: blocks	completely blocked; also recorded: blocks	only had a modest effect	did not affect	led to the stabilization	similarly blocked; also recorded: inhibits	blocked; also recorded: abrogate	did not affect; also recorded: does not affect	much less dramatic effect
